From patent EP1551873B1, “AGONISTS AND ANTAGONISTS OF THE HUMAN ODORANT RECEPTOR OR17-4 AND USES THEREOF” (Symrise AG, priority 2002, dated 2004)

Tests used:
[1] = molecular target: T1, hOR17-4 Rezeptor der vollen Länge (Homo sapiens, UniProt P34982); assay: Ca2+ imaging of HEK293 cells expressing full-length receptor (pOR17-4v); assay type: cell-based
T1 construct: wurde der Rezeptor hOR17-4 in seiner vollen Länge wie in Beispiel 3 beschrieben kloniert; expressed in transfected cells; host or cells: HEK293, transient, plasmid pOR17-4v (pRC/CMV)
T1 sequence (P34982 1-312): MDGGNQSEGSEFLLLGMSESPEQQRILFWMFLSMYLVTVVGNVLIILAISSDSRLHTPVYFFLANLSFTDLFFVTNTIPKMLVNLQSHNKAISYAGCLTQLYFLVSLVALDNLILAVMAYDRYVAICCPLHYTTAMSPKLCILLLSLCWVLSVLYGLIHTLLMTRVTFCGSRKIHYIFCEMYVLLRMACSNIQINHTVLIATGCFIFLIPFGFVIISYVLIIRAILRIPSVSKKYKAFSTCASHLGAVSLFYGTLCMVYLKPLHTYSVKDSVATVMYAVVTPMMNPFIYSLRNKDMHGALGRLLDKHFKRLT
Description: Um einen Expressionsvektor für das gesamte hOR17-4-Gen ohne geänderte Aminosäuresequenz zu erhalten, wurde das 982 bp lange PCR-Produkt (SEQ ID NO. 3, Herstellung vergleiche Beispiel 2) über stumpfe Enden in den Hindlll/Xbal verdauten Vektor pRC/CMV (Invitrogen, Carlsbad, CA), dessen überhängende Enden mit Klenow-Enzym aufgefüllt worden waren, einkloniert.
HEK293-Zellen wurden in MEM (Life Technologies, Gaithersburg, MD), das mit 10 % hitze-inaktiviertem fetalem Kälber-Serum angereichert war, in einem Inkubator bei 37 °C in einer Atmosphäre aus 95 % befeuchteter Luft und 5 % CO2 kultiviert. Semikonfluente Zellen wurden in 35 mm Gefäßen (Falcon) mittels Calciumphosphat-Präzipitation (Zufall et al., PNAS 90 (1993), 9335-9339) unter Verwendung jeweils des Plasmids pOR17-4 bzw. pOR17-4v transfiziert. […]
Die Ca^2+-imaging-Experimente wurden auf dem Träger eines invertierten Zeiss-Mikroskopes durchgeführt, das für die ratiofluorometrische Bildgebung mit einer Xenon-Bogenlampe, einem Vielfach-Wellenlängen-Illuminations-System POLYCH-ROM II zur Anregung, einer gekühlten charge-coupled device (CCD)-Kamera und einer WinNT-basierten T.I.L.L.-Vision-Software zum Sammeln und raum- und zeitabhängigen Quantifizieren Ca^2+-abhängiger Fluoreszenz-Signale (F340/F380-Verhältnis) ausgestattet war. […]

humane Spermien = assay: Sperm activation bioassay: swimming speed by computer-assisted video motion analysis (CAVMA); assay type: cell-based, human
Experimental: Gefrorene Samenproben von fünf gesunden Spendern wurden aus der California Cryobank (Los Angeles, CA, USA) erhalten und für Bioassays gemäß den World Health Organization-Richtlinien (World Health Organization: Laboratory for the examination of human serum and semen-cervical mucus interaction, Cambridge University Press (1993)) vorbereitet. Nachdem die Suspensionen auf 37 °C für 10 Minuten gebracht worden waren, wurde jede Probe in HEPES-gepufferter humaner Tubarflüssigkeit (HTF; Irvine Scientific, Santa Ana, CA, USA) überführt und auf 10^7 Zellen/ml eingestellt. Die Lösungen wurden dann bei 37 °C in einer 5 %-igen CO2-Atmosphäre aufbewahrt und innerhalb von 30 Minuten für Experimente verwendet (P. Quinn, Journal of Assisted Reproductive Genetics 12, 97-105 (1995)). Die Reaktionen von Sperma auf Bourgeonal wurde (a) durch computer-assisted video motion analysis (CAVMA) gemessen, um Veränderungen in der Schwimmgeschwindigkeit (Spermaaktivierung) zu detektieren, und (b) in einem flat capillary-Assay für die Chemotaxis in der Nähe einer Diffusionsmaterialquelle untersucht. Für jede Test-oder Kontroll-Behandlung wurden fünf wiederholte Experimente unter Verwendung von Sperma der fünf Spender durchgeführt. Die Daten der Bioassays wurden statistisch durch Ein-Weg-Varianzanalyse (ANOVA) unter Verwendung eines post-hoc Scheffe-Tests (R. W. Day and G. P. Quinn, Ecol. Monogr. 59, 433-463 (1989)) analysiert. Eine Bonferroni-Korrektur wurde zum Angleichen der α-Levels für multiple Vergleiche verwendet.
Zur Untersuchung der Spermien-Aktivierung wurden Bioassays für die Schwimmgeschwindigkeit bei 37 °C durchgeführt. Spermien wurden sanft einer Kontroll- oder Testlösung einheitlicher Konzentration zugefügt. Die Bilder von Spermien (3,0 x 10^3 Zellen/ml) wurden dann unter Verwendung einer Videokamera (NEC Modell TI 23A), die auf einem Olympus IX70-Lichtmikroskop montiert war, bei 90-facher Vergrößerung aufgenommen. Um mögliche Artefakte durch Reibungskräfte zu minimieren, besaß die Kamera eine 100 µm Feldtiefe und fokussierte auf eine Region, die annäherend 2 mm von der nächsten Oberfläche entfernt war. Videobilder von Spermien wurden mit 30 Bildern/Sekunde digitalisiert und über 10-Sekundenintervalle unter Verwendung eines CAVMA-Systemes (Motion Analysis Corporation, Modell VP 320, Expert Vision und Benutzter-Software), verbunden mit einer Sun SPARC 2 Computer-Arbeitsstation bearbeitet (J. A. Riffell, P. J. Krug, R. K. Zimmer, Journal of Experimental Biology 205, 1439-1450 (2002)). Die Schwimmgeschwindigkeit wurde auf einer Bild-zu-Bild-Basis bestimmt und danach über jeden einzelnen zurückgelegten Weg gemittelt. Um zu vermeiden, sich horizontal anstatt vertikal bewegende Zellen zu messen, wurden kurze Wege mit weniger als 11 Bildern verworfen, bei denen sich die Spermien um mehr als 20 % in ihrer scheinbaren Größe veränderten.

Inhibition der Bourgeonal-Antwort ([1]; 30 to 60 s pre-incubation of the cells) | Aktivierung des vollständigen Rezeptors hOR17-4 [1] | EC50 (humane Spermien; Homo sapiens, Sperm, 37 °C, read-out: ED50 (Konzentration, die die halbmaximale Antwort hervorruft), Schwimmgeschwindigkeit) [nM] | Compound | Effekt auf das Spermienverhalten, Schwimmgeschwindigkeit (humane Spermien; 10^-7 M alone, P > 0,99) | Schwimmgeschwindigkeit als Antwort auf 10^-7 M Bourgeonal relativ zur HTF-Kontrolle (humane Spermien; co-applied with 10^-6, 10^-7 or 10^-8 M n-Undecanal, P > 0,99) | Konzentration ohne weiteren Anstieg der Schwimmgeschwindigkeit (humane Spermien) | Konzentrationen mit signifikanten Antworten im Verhältnis zur HTF-Kontrolle, Schwimmgeschwindigkeit (humane Spermien; Scheffé test P ≤ 0,03)
inhibiert | – | – | CCCCCCCCCCC=O [n-Undecanal] | keinen messbaren Effekt | nicht signifikant erhöht | – | –
– | aktivierte deutlich | 30 | CC(C)(C)c1ccc(CCC=O)cc1 [Bourgeonal] | – | – | > 10^-6 M | ≥ 10^-8 M
